This series in a line: photoluminescence quantum yield (fraction); solvent given as SMILES.

Where “and” joins values, the source holds several entries; their conditions need not be identical. Equal entries are not always repeated.

The text below walks through data of the Deep4Chem optical property database.

Molecule `CC(C)(C)c1ccc2oc3nc4oc5ccc(-n6c7ccccc7c(=O)c7ccccc76)cc5c4cc3c2c1` registered a photoluminescence quantum yield (in ClC(Cl)Cl) of 0.391.
On to `CC(C)(C)C#Cc1ccc2c3cccc4cccc(c5cccc1c52)c43`, for which, under “in C1CCCCC1”, the photoluminescence quantum yield is 0.91.
In turn, `c1ccc2c(c1)[nH]c1c3[nH]c4ccccc4c3c3nsnc3c21` had a photoluminescence quantum yield (in CN(C)C=O) of 0.05, a photoluminescence quantum yield (in Cc1ccccc1) of 0.07 and a photoluminescence quantum yield (in ClCCl) of 0.06.
Consider `COc1ccc(/C=C(\C)c2nc3ccccc3o2)cc1`, for which the photoluminescence quantum yield (in C1CCCCC1) was 0.002.
On to `CC(C)(C)c1ccc2oc(-c3ccc(-c4nc5cc(C(C)(C)C)ccc5o4)s3)nc2c1`, for which the photoluminescence quantum yield reads like this: (in C1CCCCC1) 0.8; (in C1CCOC1) 0.78; (in CC1CCCCC1) 0.66; (in CC#N) 0.76; (in CCCCO) 1; (in CCO) 1. Besides, the photoluminescence quantum yield was 0.87 (in CN(C)C=O), 1 (in Cc1ccccc1), 0.96 (in Clc1ccccc1Cl) and 0.82 (in c1ccccc1).
Molecule `COc1ccc(C2=C(c3ccc(OC)cc3)C(C)(C)c3cc(-c4ccccc4)ccc32)cc1` returned a photoluminescence quantum yield (in C1CCCCC1) of 0.06.
Regarding `c1ccc2c3c(ccc2c1)-c1cc2ccccc2c2cccc-3c12`, where the note is “in CCCCCCC”, the photoluminescence quantum yield amounted to 0.1.
As for `COc1cc(/C=C/C(=O)CC(=O)/C=C/c2ccc(O)c(OC)c2)ccc1O`, the photoluminescence quantum yield runs as follows: (in C1CCCCC1) 0.014; (in CC#N) 0.075; (in CN(C)C=O) 0.022; (in CO) 0.017; (in CS(C)=O) 0.024; (in c1ccccc1) 0.052.
Take `N#Cc1c(-n2c3ccccc3c3ccccc32)c(-n2c3ccccc3c3ccccc32)c(-n2c3ccccc3c3ccccc32)c(-n2c3ccccc3c3ccccc32)c1-n1c2ccccc2c2ccccc21`: the photoluminescence quantum yield runs as follows: (in Cc1ccccc1) 0.75 and 0.7; (in c1cc(-c2cccc(-n3c4ccccc4c4ccccc43)c2)cc(-n2c3ccccc3c3ccccc32)c1) 0.65.
For the molecule `c1ccc(-c2c3ccccc3nc3cc4ccccc4cc23)cc1`, the photoluminescence quantum yield (in ClCCl) was 0.4.
With `c1ccc2nc3c(nc2c1)[nH]c1ccccc13`, the photoluminescence quantum yield by setting is: (in C1COCCO1) 0.04; (in CC#N) 0.05; (in CCCCCCC) 0.02; (in CCO) 0.01.
Molecule `O=c1oc2ccccc2cc1C#Cc1ccccc1` came in with a photoluminescence quantum yield (in CC#N) of 0.88.
Molecule `C[Si]1(C)C2=CC(=[N+]3CCC3)C=C(F)C2=Nc2c(F)cc(N3CCC3)cc21` returned a photoluminescence quantum yield (in CCO) of 0.11.
For the molecule `CCn1c2ccccc2c2cc(-c3cc(-c4ccc5c(c4)c4ccccc4n5CC)nc(N4CCCCC4)n3)ccc21`, the photoluminescence quantum yield reads like this: (in C1CCOC1) 0.15; (in CCOC(C)=O) 0.14; (in CN(C)C=O) 0.17; (in Cc1ccccc1) 0.16; (in ClCCl) 0.15.
For `Cc1cccc(C)c1Nc1ccc(/C=C/c2ccccc2)cc1`, the photoluminescence quantum yield came out at 0.04 (in CC#N) and 0.11 (in CCCCCC).
As for `c1ccc(N2c3ccc4ccccc4c3-c3c4ccccc4nc[n+]3[B-]2(c2ccccc2)c2ccccc2)cc1`, the photoluminescence quantum yield was 0.07 (in C1CCC2CCCCC2C1); 0.06 (in C1CCCCC1); 0.06 (in CCCCCC); 0.02 (in CCOC(C)=O); 0.03 (in Cc1ccccc1); 0.01 (in ClC(Cl)Cl).
As to `CCCSC1=[N+]2C(=C(c3ccccc3)c3ccc(SCCC)n3[B-]2(F)F)C=C1`, the photoluminescence quantum yield is, setting by setting: (in CC#N) 0.44; (in CCCCCC) 0.34; (in CCOC(C)=O) 0.36; (in CO) 0.42; (in ClCCl) 0.43.
